According to patent US9890315B2, “Use of polylysine as a shale inhibitor” (BASF SE, priority 2011, dated 2018):

What was measured:
[1] = Performance test: Fann rheology and gel strength of bentonite suspension with shale inhibitor; conditions: 7.14 g/l Shale Inhibitor and 85.7 g/l Bentonite
Protocol: 350 ml of tap water are introduced into a beaker, 2.5 g of the shale inhibitor (calculated as dry mass—i.e. quaternized or non-quaternized polylysine or a prior art product) are added and the mixture is stirred for 20 min. The solution is transferred into an HB mixing cup. 30 g of Cebogel® NT (Bentonite, Cebo Holland B.V., The Netherlands) are added as a model substance for shale and the mixture is stirred at low speed for 10 min. Subsequently, the Fann rheology and the gel strength are determined.

[2] = OECD 306: Biodegradability in Seawater, Closed Bottle Method
Protocol: According to the method described in “OECD Guidelines for Testing of Chemicals—1992 OECD 306: Biodegradability in Seawater, Closed Bottle Method”, the biodegradability of the quaternized polylysine according to Example 3a, of Comp. sample 2 (Ultrahib®) and of a reference substance (sodium benzoate) was evaluated after 28 days and 60 days.

Compound	Fann 35 values 3 ([1]; tap water)	Fann 35 values 6 ([1]; tap water)	Fann 35 values 100 ([1]; tap water)	Fann 35 values 200 ([1]; tap water)	Fann 35 values 300 ([1]; tap water)	Fann 35 values 600 ([1]; tap water)	Gel strength 10′ ([1]; tap water)	Gel strength 10″ ([1]; tap water)	PV ([1]; tap water)	YP ([1]; tap water)	pH ([1]; pH of the test mixture)	biodegradability Day 28 ([2]; after 28 days)	biodegradability Day 60 ([2]; after 60 days)
C[N+](C)(C)CCO.[Cl-] [Comp. 3, Cholinchlorid]	4 Pa	4 Pa	5 Pa	6 Pa	6 Pa	8 Pa	3 Pa	3 Pa	3 mPa*s	5 Pa	9.1		
O=C([O-])c1ccccc1.[Na+] [Reference, sodium benzoate]												80%	70%
